Experimental data as given in ChEMBL document CHEMBL1152163, “Development of novel 2-[4-(aminoalkoxy)phenyl]-4(3H)-quinazolinone derivatives as potent and selective histamine H3 receptor inverse agonists” (Bioorg Med Chem Lett, 2008).

Tests used:
[1] = target: T1, Alpha-1A adrenergic receptor (Homo sapiens, UniProt P35348); assay: Displacement of [3H]prazosin from human adrenergic alpha1A receptor expressed in LMtk- cells; type: cell-based
T1 sequence (P35348 whole entry): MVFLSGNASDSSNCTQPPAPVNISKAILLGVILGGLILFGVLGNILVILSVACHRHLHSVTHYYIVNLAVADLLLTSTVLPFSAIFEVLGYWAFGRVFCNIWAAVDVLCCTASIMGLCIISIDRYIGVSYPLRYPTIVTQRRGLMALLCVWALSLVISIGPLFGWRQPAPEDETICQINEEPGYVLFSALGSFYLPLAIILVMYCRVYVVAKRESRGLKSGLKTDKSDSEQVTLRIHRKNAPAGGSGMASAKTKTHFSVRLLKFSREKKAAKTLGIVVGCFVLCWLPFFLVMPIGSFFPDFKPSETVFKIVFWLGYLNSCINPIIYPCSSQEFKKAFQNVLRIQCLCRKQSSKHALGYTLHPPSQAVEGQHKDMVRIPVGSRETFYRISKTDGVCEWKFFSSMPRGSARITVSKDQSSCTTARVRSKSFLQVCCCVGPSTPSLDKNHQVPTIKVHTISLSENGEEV

[2] = AUC (0 to infinity) in Sprague-Dawley rat at 3 mg/kg, po; type: ADME, organism-based; parameters: time infinity, dose 3 mg/kg, route oral; conditions: plasma
Histamine H2 receptor = Histamine H2 receptor (Homo sapiens, UniProt P25021); assay: Inhibition of human histamine H2 receptor
Chain of Histamine H2 receptor (P25021 whole entry): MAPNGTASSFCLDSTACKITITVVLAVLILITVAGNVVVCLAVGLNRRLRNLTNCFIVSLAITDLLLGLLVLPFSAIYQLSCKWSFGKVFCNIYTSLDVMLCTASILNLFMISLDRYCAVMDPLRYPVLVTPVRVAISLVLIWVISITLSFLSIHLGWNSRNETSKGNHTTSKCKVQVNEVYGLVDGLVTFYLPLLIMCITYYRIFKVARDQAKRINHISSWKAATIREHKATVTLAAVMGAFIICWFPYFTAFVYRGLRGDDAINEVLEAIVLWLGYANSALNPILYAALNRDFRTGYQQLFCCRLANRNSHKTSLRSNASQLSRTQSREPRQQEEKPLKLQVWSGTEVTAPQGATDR

Rattus norvegicus [3] = assay: Increase in tele-methylhistamine level in po dosed Sprague-Dawley rat brain; type: functional, organism-based
[4] = Half life in Sprague-Dawley rat at 1 mg/kg, iv; type: ADME, organism-based; parameters: dose 1 mg/kg, route intravenous; conditions: in vivo
Brain = assay: Drug level in Sprague-Dawley rat brain at 10 mg/kg, po; type: ADME, organism-based; parameters: dose 10 mg/kg, route oral; conditions: in vivo
Rattus norvegicus [5] = assay: Plasma clearance in Sprague-Dawley rat at 1 mg/kg, iv; type: ADME, organism-based; parameters: dose 1 mg/kg, route intravenous; conditions: in vivo
[6] = Volume of distribution at steady state in Sprague-Dawley rat at 1 mg/kg, iv; type: ADME, organism-based; parameters: dose 1 mg/kg, route intravenous; conditions: in vivo, read-out: Vdss
Rattus norvegicus [7] = assay: Plasma concentration in Sprague-Dawley rat at 10 mg/kg, po; type: ADME, organism-based; parameters: dose 10 mg/kg, route oral; conditions: in vivo
Histamine H1 receptor = Histamine H1 receptor (Homo sapiens, UniProt P35367); assay: Inhibition of human histamine H1 receptor
Chain of Histamine H1 receptor (P35367 whole entry): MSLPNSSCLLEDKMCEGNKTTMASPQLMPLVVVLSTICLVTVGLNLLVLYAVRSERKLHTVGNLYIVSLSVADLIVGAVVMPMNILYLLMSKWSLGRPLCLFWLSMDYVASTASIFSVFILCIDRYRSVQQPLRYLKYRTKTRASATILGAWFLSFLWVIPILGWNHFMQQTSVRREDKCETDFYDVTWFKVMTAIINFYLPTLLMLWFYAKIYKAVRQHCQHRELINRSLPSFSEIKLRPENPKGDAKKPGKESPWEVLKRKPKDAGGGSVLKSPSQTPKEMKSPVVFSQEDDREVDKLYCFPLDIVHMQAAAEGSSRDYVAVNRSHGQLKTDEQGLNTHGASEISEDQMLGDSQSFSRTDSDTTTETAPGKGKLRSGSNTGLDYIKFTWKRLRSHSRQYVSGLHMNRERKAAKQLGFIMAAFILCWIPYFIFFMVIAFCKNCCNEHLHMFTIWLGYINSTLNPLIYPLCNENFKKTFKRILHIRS

Histamine H4 receptor = Histamine H4 receptor (Homo sapiens, UniProt Q9H3N8); assay: Inhibition of human histamine H4 receptor
Chain of Histamine H4 receptor (Q9H3N8 whole entry): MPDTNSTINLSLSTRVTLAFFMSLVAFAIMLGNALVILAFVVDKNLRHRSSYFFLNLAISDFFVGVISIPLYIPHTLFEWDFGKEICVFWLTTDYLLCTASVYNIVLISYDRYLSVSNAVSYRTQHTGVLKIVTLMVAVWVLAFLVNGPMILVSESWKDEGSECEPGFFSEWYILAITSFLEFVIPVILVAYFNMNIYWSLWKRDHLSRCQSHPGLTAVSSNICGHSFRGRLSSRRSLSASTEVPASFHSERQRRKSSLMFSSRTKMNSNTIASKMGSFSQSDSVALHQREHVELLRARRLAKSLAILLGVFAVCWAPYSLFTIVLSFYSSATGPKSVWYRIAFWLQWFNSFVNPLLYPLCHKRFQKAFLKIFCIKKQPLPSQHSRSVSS

[8] = Cmax in Sprague-Dawley rat at 3 mg/kg, po; type: ADME, organism-based; parameters: dose 3 mg/kg, route oral; conditions: in vivo
[9] = Oral bioavailability in Sprague-Dawley rat; type: ADME, organism-based; conditions: in vivo

## Cn1c(-c2ccc(OCCCN3CCCCC3)cc2)nc2ccccc2c1=O
[1]
  IC50: 2.9 µM

## CCn1c(-c2ccc(OCCCN3CCCCC3)cc2)nc2ccccc2c1=O
[1]
  IC50: 1.3 µM

## O=c1c2ccccc2nc(-c2ccc(OCCCN3CCCCC3)cc2)n1Cc1ccccc1
[1]
  IC50: 7.2 µM

## O=c1c2ccccc2nc(-c2ccc(OCCCN3CCCCC3)cc2)n1-c1ccccc1
[1]
  IC50: 2.4 µM

## Cc1nc2ccccc2c(=O)n1-c1ccc(OCCCN2CCCCC2)cc1
[1]
  IC50: 6.5 µM

## COc1ccc2c(=O)n(C)c(-c3ccc(OC4CCN(C5CCC5)CC4)cc3)nc2c1
[1]
  IC50: > 10 µM

## COc1cccc2c(=O)n(C)c(-c3ccc(OC4CCN(C5CCC5)CC4)cc3)nc12
[1]
  IC50: > 10 µM

## COc1cccc2nc(-c3ccc(OC4CCN(C5CCC5)CC4)cc3)n(C)c(=O)c12
[1]
  IC50: 4.2 µM

## Cc1cccc2c(=O)n(C)c(-c3ccc(OC4CCN(C5CCC5)CC4)cc3)nc12
[1]
  IC50: 10 µM

## Cn1c(-c2ccc(OC3CCN(C4CCCC4)CC3)cc2)nc2ccccc2c1=O
[1]
  IC50: 6.2 µM

## Cn1c(-c2ccc(OC3CCN(C4CCC4)CC3)cc2)nc2c(F)cccc2c1=O
[1]
  IC50: 4.5 µM

## COc1nccc2c(=O)n(C)c(-c3ccc(OC4CCN(C5CCC5)CC4)cc3)nc12
[2]
  AUC(0-inf): 2.1 µM·h
Histamine H2 receptor
  IC50: > 10 µM
Rattus norvegicus [3]
  Activity: Dose-dependent effect
[4]
  half-life: 2 h
Brain
  Drug uptake: 2.96 nmol/g
Rattus norvegicus [5]
  clearance: 29 mL/min/kg
[6]
  Vd: 4.8 L/kg
Rattus norvegicus [7]
  concentration: 2080 nM
Histamine H1 receptor
  IC50: > 10 µM
Histamine H4 receptor
  IC50: > 10 µM
[8]
  Cmax: 570 nM
[9]
  bioavailability: 48%
[1]
  IC50: > 10 µM

## COc1ccc2nc(-c3ccc(OC4CCN(C5CCC5)CC4)cc3)n(C)c(=O)c2c1
[1]
  IC50: 5.9 µM

## Cn1c(-c2ccc(OC3CCN(C4CCC4)CC3)cc2)nc2ccccc2c1=O
[1]
  IC50: 6.3 µM

## Cn1c(-c2ccc(OC3CCN(C4CCC4)CC3)cc2)nc2c(C(F)(F)F)cccc2c1=O
[1]
  IC50: > 10 µM

## Cn1c(-c2ccc(OCCCN3CCCC3)cc2)nc2ccccc2c1=O
[1]
  IC50: 2.2 µM

## Cn1c(-c2ccc(OC3CCN(C4CCC4)CC3)cc2)nc2c(Cl)cccc2c1=O
[1]
  IC50: 6.5 µM
